The text below walks through data of patent US20110045083A1, “USE LARCH WOOD FOR TREATING INFLAMMATION” (priority 2007, published 2011).

As a reminder, the IC50 is the midpoint of a concentration-inhibition curve.

“And” between values parts separate entries of the source, which are not always exact repeats. Equal entries are not always repeated. Where two headings read alike, the source gives them in different places.

In test [1] the test system is IL-6 and TNF-α. Kind of test: Sow feeding trial, Postpartum Dysgalactia Syndrome, inflammation markers. Type of test: in vivo. To be noted: sows, relative to untreated animals at allocation day. On the procedure: Principle: Evaluation of the antiinflammatory activity of Larch sawdust in order to reduce the prevalence of Postpartum Dysgalactia Syndrome in sows under field conditions. IL-6 and TNF-α were analyzed as markers of inflammatory stress.
Materials and Methods: Sows with no clinical signs of disease were used from a farm of approximately 900 sows under production. Trial animals were sows of the same genotype (Dalland hybrids), chosen in terms of achieving homogenity regarding parity, bodyweight, previous production parameters (litter size, litter average bodyweight etc.) and previous health status. The farm was selected due to previous history of Post Partum Dysgalactia Syndrome occurrence. The sows were randomly allocated to a control group (n=5), a positive control group (n=5) and a larch sawdust (n=5) group. The whole trial period was 35 days beginning at 7 days prior to farrow until the day of weaning.
1% by weight of larch sawdust was added as an anti-inflammatory ingredient to sow feed (dry period and lactation feed). […] The raw materials were well accepted at an inclusion level of 1% by weight in the diet as it was shown by previous trials performed.
Thus, during the whole trial period the animals were fed as follows:
1. Control group (99% Basic diet and 1% Corn starch) 2. Larch group (99% Basic diet and 1% Larch) 3. Positive control group (99% Basic diet and 1% Corn starch)
Moreover, the animals of the positive control group were injected a single 2 ml dosage of an antiinflammatory drug (meloxicam) at the day of parturition, while the animals of all the other groups were injected with a single 2 ml dose of normal saline at the same day.
Blood samples were collected from all trial animals at allocation day (7 days before farrowing day) and at 24 and 72 hours post farrowing from all sows for inflammation markers evaluation (serum TNF-α, plasma IL-6). Additionally the milk production index for all sows was calculated, while production and health parameters of sows and their litters were recorded.
The cytokines results were expressed as n-fold increase of cytokine expression in relation to untreated animals at allocation day.

In test [2] the test system is 5-LOX mediated LT biosynthesis. In words: LT biosynthesis inhibition assay in activated neutrophile granulocytes, LTB4 EIA. Type of test: cell-based, human. On the procedure:
1.) LT biosynthesis inhibition assay
The assay was performed as described in [Michael Adams, Olaf Kunert, Ernst Haslinger, Rudolf Bauer: Inhibition of Leukotriene Biosynthesis by Quinolone Alkaloids from the Fruits of Evodia Rutaecarpa; Planta med. 2004 (70): 904-908] with some modifications.
Principle: Activated neutrophile granulocytes with 5-LOX activity are incubated with a defined concentration of test sample and arachidonic acid. After stopping the enzymatic reaction by addition of formic acid and centrifugation to remove cellular fragments, the produced LTB4 is quantified in the supernatant by means of an LTB4 EIA kit.
Isolation of human neutrophile granulocytes: 30 ml of venous human blood from healthy voluntary donors are collected with a Vacutainer™ (BD, Plymouth, UK) system containing a 0.219 M pre-analytical citric acid solution. The blood is immediately transferred to a falcon tube containing 20 ml of sedimentation solution (1% NaCl, 6% dextran T-500) and left to separate for 60 min at 4° C. While most of the dense erythrocytes sink into the dextran layer, the lighter blood fractions remain in the upper layer which is then removed and centrifuged at 1600 rpm (4° C., 10 min) to concentrate the leukocytes. The plasma supernatant is discarded, the pellet is resuspended in 10 ml of a wash buffer (10% CaCl2.2H2O p.a.; 0.1% anhydrous d-glucose; 0.2% MgCl2.6H2O; 0.04% KCl; 1.75% TRIS p.a.; with the pH adjusted to 7.6 with 1N HCl). After centrifugation at 1400 rpm (4° C., 10 min) and removal of the supernatant the resulting pellet is resuspended in 10 ml of a hypotonic lysis buffer (0.17% NH4Cl; 0.2% TRIS; pH 7.2) and gently shaken for 5 min at room temperature to destroy remaining erythrocytes. The suspension is submitted to another centrifugation at 1400 rpm (4° C., 5 min). The pellet is resuspended in 10 ml of wash buffer and then centrifuged at 1400 rpm (4° C., 15 min). The resulting pellet which now mainly contains neutrophile granulocytes is resuspended in 2 ml of TRIS buffer (1.75% TRIS p.a., 0.9% NaCl, pH 7.4), tested for vitality, quantified and then diluted to a cell concentration of 4500 cells/ml with TRIS buffer.
Cell vitality test: 50 μl of cell suspension and 10 μl of trypan blue solution (0.4%) (Sigma Chemical Co. Steinheim, Germany) are mixed on a glass object carrier and examined with a light microscope at 1000 fold magnification. Dead cells appear larger and darker due to absorption of trypan blue. The vitality of the cells must be >95%.
Determination of cell concentration: 10 μl of granulocyte cell suspension are dyed using 990 μl aqueous TURKS solution (Merck) and quantified in a “Neubauer” chamber (Assistent, Germany).
Sample preparation: samples are dissolved in an appropriate amount of ethanol p.a. to be added to the test mixture resulting in screening concentrations of 50 μM for pure compounds and 20 μg/ml for crude. The commercially available 5-LOX inhibitor zileuton (Sequoia Research Products Ltd., UK) is used as a positive control at a concentration of 10 μM representing its IC50 in this test system.
Incubation procedure: The incubation mixture in a 96-well flat bottom microtitre plate (Bibby Sterilin, Staffordshire, UK) consists of 265 μl leukocyte suspension, with 75.5 μM CaCl2, 0.152 μM […] (ETYA) as an inhibitor of the 12-LOX pathway, 0.642 μM Ca ionophore A23187 and 4.43 μM arachidonic acid, the substrate of the 5-LOX pathway, along with 5 μl of each test solution or 5 μl of EtOH p.a. in control wells. After incubation for 10 min at 37° C. in darkness, the reaction is stopped by addition of 20 μl of 10% formic acid. The microtitre plate is centrifuged for 15 min at 1400 rpm to separate free LTB4 from cellular particles before the supernatant is diluted 40 fold in EIA buffer and applied to a competitive LTB4 EIA kit (Assay Designs Inc.).
LTB4 EIA: The plate is incubated for 2 hours at room temperature on an orbital shaker. […]

The target of test [3] is 5-lipoxygenase (5-LOX). To be noted: read-out: 5-LOX inhibitory activity IC50, cited from earlier work.

As for `Cc1cnc(NC(=O)C2=C(O)c3ccccc3S(=O)(=O)N2C)s1` [Positive controls, meloxicam], in test [1] (24 hours PP), the “Relative expression of IL6” value came to 1.86 ± 0.92 n fold and the “Relative expression of TNFα” value was 0.87 ± 0.29 n fold. In test [1] (72 hours PP), the “Relative expression of IL6” value was 1.08 ± 0.78 n fold and the “Relative expression of TNFα” value was determined as 0.98 ± 0.77 n fold.
Turning to `CC(c1cc2ccccc2s1)N(O)C(N)=O` (centres unmarked) [Zileuton, reference compound], the IC50 in test [2] was 5 µM; in test [2] (Homo sapiens), 10 µM and 1.2 µg/mL.
With `CC(C)C1=CC2=CC[C@@H]3[C@](C)(CCC[C@@]3(C)C(=O)O)[C@H]2CC1` [abietic acid], the IC50 in test [3] (Ulusu et al. 2002, isolated from cones of Abies nordmanniana ssp. equitraojani) was 29.5 ± 1.29 µM; in test [3] (known from the art) it was about 30 µM.
